target: human PARG (PARG-NanoLuc fusion in HEK293T cells) (Homo sapiens (Human), UniProt Q86W56); assay: PARG NanoBRET-based cellular target engagement assay; assay type: cell-based; conditions: HEK293T cells transfected with PARG-NanoLuc, NanoBRET probe 0.89 μM, 2 hours; read-out: PARG TE IC50
Summary of the method: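 HEK293T cells transiently expressing full-length human PARG with C-terminal NanoLuc, plated 24 h, then given compound (8-point series, 0.5% DMSO) for 15 min at room temperature. NanoBRET tracer added at 0.89 μM final, 2 h at 37° C.; BRET ratio (460/645 nm) fitted by 4-parameter logistic to give IC50.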

Sequence of human PARG (PARG-NanoLuc fusion in HEK293T cells) (Q86W56 whole entry, the tested form may be a part): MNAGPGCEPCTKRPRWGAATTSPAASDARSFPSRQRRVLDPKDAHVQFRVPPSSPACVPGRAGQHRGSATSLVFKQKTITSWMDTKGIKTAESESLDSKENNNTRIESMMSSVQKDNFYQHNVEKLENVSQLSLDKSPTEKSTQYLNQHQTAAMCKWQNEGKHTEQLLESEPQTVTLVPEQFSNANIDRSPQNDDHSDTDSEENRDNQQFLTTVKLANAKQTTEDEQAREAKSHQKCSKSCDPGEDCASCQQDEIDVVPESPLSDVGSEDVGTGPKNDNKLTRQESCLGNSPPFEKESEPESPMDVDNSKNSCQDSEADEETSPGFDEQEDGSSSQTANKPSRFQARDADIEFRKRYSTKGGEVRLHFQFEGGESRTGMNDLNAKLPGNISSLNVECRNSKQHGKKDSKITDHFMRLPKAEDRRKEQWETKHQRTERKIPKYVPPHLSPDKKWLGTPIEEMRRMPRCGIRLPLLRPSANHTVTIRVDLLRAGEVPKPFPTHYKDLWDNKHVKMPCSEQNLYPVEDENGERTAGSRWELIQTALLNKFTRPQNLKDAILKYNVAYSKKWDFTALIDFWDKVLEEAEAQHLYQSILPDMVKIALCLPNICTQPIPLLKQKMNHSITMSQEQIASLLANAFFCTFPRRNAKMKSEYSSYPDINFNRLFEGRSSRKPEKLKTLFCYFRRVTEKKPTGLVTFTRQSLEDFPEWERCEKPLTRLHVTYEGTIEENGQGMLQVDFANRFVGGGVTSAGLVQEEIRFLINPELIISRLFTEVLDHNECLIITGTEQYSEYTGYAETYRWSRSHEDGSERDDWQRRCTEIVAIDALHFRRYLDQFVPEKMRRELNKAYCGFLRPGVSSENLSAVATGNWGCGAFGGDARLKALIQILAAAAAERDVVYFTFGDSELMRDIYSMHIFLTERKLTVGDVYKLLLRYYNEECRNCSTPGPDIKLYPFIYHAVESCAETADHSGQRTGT

Row | SMILES | IC50 [nM]
1 | CO/N=c1\[nH]c2ccc(S(=O)(=O)NC3(C)COC3)cc2c(=O)n1Cc1cnn(C)c1 [Example 2, 2-methoxyimino-N-(3-methyloxetan-3-yl)-3-[(1-methylpyrazol-4-yl)methyl]-4-oxo-1H-quinazoline-6-sulfonamide] | 100 to 1000
2 | Cc1nc(C)c(CO/N=c2\[nH]c3ccc(S(=O)(=O)NC4(C)CC4)cc3c(=O)n2Cc2cnn(C)c2)s1 [Example 3, 2-[(2,4-dimethylthiazol-5-yl)methoxyimino]-N-(1-methylcyclopropyl)-3-[(1-methylpyrazol-4-yl)methyl]-4-oxo-1H-quinazoline-6-sulfonamide] | 100 to 1000
3 | CO/N=c1\[nH]c2c(-c3ccc(C(=O)N(C)C)cc3)cc(S(=O)(=O)NC3(C)CC3)cc2c(=O)n1Cc1cnn(C)c1 [Example 5, 4-[2-methoxyimino-6-[(1-methylcyclopropyl)sulfamoyl]-3-[(1-methylpyrazol-4-yl)methyl]-4-oxo-1H-quinazolin-8-yl]-N,N-dimethyl-benzamide] | < 30
4 | CO/N=c1\[nH]c2c(N3CCN[C@H](C)C3)cc(S(=O)(=O)NC3(C)CC3)cc2c(=O)n1Cc1cnn(C)c1 [Example 7, 2-methoxyimino-N-(1-methylcyclopropyl)-3-[(1-methylpyrazol-4-yl)methyl]-4-oxo-8-[(3R)-3-methylpiperazin-1-yl]-1H-quinazoline-6-sulfonamide] | < 30
5 | CON=c1[nH]c2c(N3CCN(C(=O)C4(C)CC4)[C@H](C)C3)cc(S(=O)(=O)NC3(C)CC3)cc2c(=O)n1Cc1cnn(C)c1 [Example 8, 2-methoxyimino-N-(1-methylcyclopropyl)-3-[(1-methylpyrazol-4-yl)methyl]-4-oxo-8-[(3R)-3-methyl-4-(1-methylcyclopropanecarbonyl)piperazin-1-yl]-1H-quinazoline-6-sulfonamide] | < 30
6 | CO/N=c1\[nH]c2ccc(S(=O)(=O)NC3(C)CC3)cc2c(=O)n1Cc1cnc(C)s1 [Example 1, 2-methoxyimino-N-(1-methylcyclopropyl)-3-[(2-methylthiazol-5-yl)methyl]-4-oxo-1H-quinazoline-6-sulfonamide] | 30 to 99

Source: patent US20260042754A1, “Substituted Bicyclic Heteroaryl Sulfonamide Derivatives for the Treatment of Cancer” (NODUS ONCOLOGY LIMITED, priority 2022, published 2026)
